Assay results published in publication PMC10564737, “Structure-based design of a phosphotyrosine-masked covalent ligand targeting the E3 ligase SOCS2” (Nature Communications, 2023).
Values joined by “and” are separate entries in the source; they are usually repeats but may differ in a detail not shown here. Equal entries are not always repeated. Where two headings read alike, the source gives them in different places.

Target: T1, SBC2 (Homo sapiens, UniProt O14508)
T1 construct: SOCS2 (amino acids 32–198); His6 (N, cleaved yes); made in house; host or cells: E. coli BL21(DE3)
Assay: Covalent fluorescence polarization (FP) probe displacement assay
Assay type: binding
Details: for kinact/KI: read-out: Slope: Kinact/Ki (converted); for Anisotropy based on Raw Data (485): Cycle 7 (30 min); for Fb, fraction bound: Cycle 2 (5 min); for Anisotropy data 485,520,520 / Normalised anisotropy (0 nM MN551 = 1, free probe = 0) / Anisotropy normalised (0 nM MN551 = 1, free probe = 0): n=1
Text: With the specific covalent modification of Cys111 established, we decided to fully characterize MN551 as a covalent SOCS2 inhibitor. […] (Fig. 2g, h, Supplementary Fig. 9). Due to the covalent nature of the competing inhibitor, a time-dependent reduction in the fraction of protein-bound probe is observed. […] This value illustrates reasonable specificity for a covalent inhibitor, with nonetheless scope for future optimization. In addition to characterizing the kinetic covalency parameters, we have also assessed the stability of the MN551 by monitoring its reactivity (half-life >70 min) with reduced glutathione (GSH) (Supplementary Fig. 10)[35].
To monitor the SBC2-ligand binding kinetics we designed a fluorescein-labeled small-molecule probe - compound 26. The fluorescence polarization (anisotropy) of a threefold serial dilution of 50 µM SBC2 in 10 nM of the probe in 100 mM HEPES pH 7.5, 50 mM NaCl, 0.5 mM TCEP, 2% DMSO was measured to determine the KL (Supplementary Fig. 9A) (BMG Labtech PHERAstar – firmware v1.33). Protein titration and the curves were fitted using GraphPad Prism 9, using one-site fitting models to determine the probe binding constant, KL. Samples were run in triplicate in 384 well plates, using a total volume per well of 16 μL. The bound fraction of the probe is measure using the equation:1 Fb=Af−A/Af−Ab Where,
A time-dependent reduction in probe anisotropy were measured for a 2-fold serial dilution of […] compound MN551 in 10 nM probe +300 μM SBC2. To determine the initial reversible binding affinity, the initial bound fraction of the probe at time = 0, Fbo (the y-intercept in Fb v/s Time plot, Supplementary Fig. 9B) was plotted against MN551 concentration, and the obtained IC50 is then converted to Ki (Supplementary Fig. 9C)[17]. The slope from Fb versus time graph when divided by Fbo gives rate of covalency, kobs. A plot of kobs v/s MN551 concentration using Michaelis–Menten model of GraphPad Prism 9, provides the parameters kinact (maximum potential rate of inactivation) and KI (concentration of MN551 at which kobs = kinact/2) (Supplementary Fig. 9D, E).
The observed first-order rate constant, kobs is related to KI and kinact by the equation:2 kobs=kinactI/KI+I
At [I]«[KI] the above equation is converted to3 […]
The slope from the plot of kobs against concentration of MN551 gives us the covalent efficiency parameter kinact/KI (Supp Fig. 9F)[30],[33].

[1] = MN551 12.599 nM, Cycle 11 (50 min)
[2] = MN551 12.599 nM, Cycle 18 (85 min)
[3] = MN551 17.6386 nM, Cycle 11 (50 min)
[4] = MN551 17.6386 nM, Cycle 12 (55 min)
[5] = MN551 17.6386 nM, Cycle 18 (85 min)
[6] = MN551 24.694 nM, Cycle 11 (50 min)
[7] = MN551 24.694 nM, Cycle 12 (55 min)
[8] = MN551 24.694 nM, Cycle 18 (85 min)
[9] = MN551 34.5716 nM, Cycle 11 (50 min)
[10] = MN551 34.5716 nM, Cycle 12 (55 min)
[11] = MN551 34.5716 nM, Cycle 18 (85 min)

T1 sequence (O14508 32-198): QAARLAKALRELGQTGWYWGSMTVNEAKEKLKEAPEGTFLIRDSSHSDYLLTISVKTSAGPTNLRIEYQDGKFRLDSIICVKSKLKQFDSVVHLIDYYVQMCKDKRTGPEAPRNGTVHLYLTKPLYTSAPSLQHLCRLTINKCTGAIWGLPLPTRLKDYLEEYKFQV
T1 sequence (Q15370 1-104 partner limits assumed): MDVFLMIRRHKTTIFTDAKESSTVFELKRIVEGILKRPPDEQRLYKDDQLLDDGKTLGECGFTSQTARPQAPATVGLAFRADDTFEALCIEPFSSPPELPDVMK
T1 sequence (Q15369 17-112 partner limits assumed): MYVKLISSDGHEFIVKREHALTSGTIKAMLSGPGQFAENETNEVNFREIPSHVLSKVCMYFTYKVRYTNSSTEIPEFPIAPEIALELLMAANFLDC

O=C(CCl)Nc1cccc(CNC(=O)[C@H](Cc2ccc(OP(=O)(O)O)cc2)NC(=O)Cc2ccc(F)cc2)c1 [MN551]
kinact (FP competition assay to evaluate MN551 covalent efficiency, experiment n=1, from Michaelis-Menten fit (Vmax), read-out: Kinact (converted)): 0.0145 min⁻¹
kinact (FP competition assay to evaluate MN551 covalent efficiency, experiment n=1, read-out: Kinact (converted)): 0.0145 min⁻¹
kinact/KI (FP competition assay to evaluate MN551 covalent efficiency, experiment n=1, slope of linear fit, MN551 below Ki titration): 55.8 M⁻¹ s⁻¹
kinact/KI (FP competition assay to evaluate MN551 covalent efficiency, experiment n=1, slope of linear fit): 55.8 M⁻¹ s⁻¹
kinact (FP competition assay, replicate n=3, read-out: Kinact (min-1) (converted)): 0.0174 min⁻¹
kinact (FP competition assay, replicate n=3, read-out: Kinact (s-1)): 0.0174 min⁻¹
kinact/KI (FP competition assay, replicate n=3): 61.5 M⁻¹ s⁻¹
Anisotropy based on Raw Data (485) (MN551 12.207 nM): 281.1 and 280.8 and 279.5
Fb, fraction bound (MN551 12.207 nM): 0.9935 and 1.0185 and 1.023
Anisotropy (MN551 12.207 nM, Cycle 11 (50 min)): 276.9 and 277 and 280.3
Anisotropy data 485,520,520 (MN551 12.207 nM, Cycle 18 (85 min)): 272.5 and 273.4 and 274.8
Anisotropy based on Raw Data (485) (MN551 12.599 nM): 275 and 272 and 270
Normalised anisotropy (0 nM MN551 = 1, free probe = 0) (MN551 12.599 nM, Cycle 13 (60 min)): 0.9972 and 0.9668 and 1.008
Normalised anisotropy (0 nM MN551 = 1, free probe = 0) (MN551 12.599 nM, Cycle 14 (65 min)): 1.04 and 1.018 and 1.012
Fb, fraction bound (MN551 12.599 nM): 1.02 and 0.9926 and 1.014
Anisotropy [1]: 278.4 and 278.3 and 275.7
Fb [1]: 1.027 and 1.013 and 1.017
Fb (MN551 12.599 nM, Cycle 12 (55 min)): 1.006 and 1.0163 and 0.9962
Anisotropy data 485,520,520 [2]: 273.9 and 272.6 and 271.8
Anisotropy normalised (0 nM MN551 = 1, free probe = 0) [2]: 1.0213 and 1.004 and 1.0408
Anisotropy normalised (0 nM MN551 = 1, free probe = 0) (MN551 12.599 nM, Cycle 19 (90 min)): 1.03 and 1.012 and 1.015
Anisotropy normalised (0 nM MN551 = 1, free probe = 0) (MN551 12.599 nM, Cycle 20 (95 min)): 0.9942 (2×) and 0.9893
Anisotropy based on Raw Data (485) (MN551 17.6386 nM): 276.7 and 273.3 and 271.3
Normalised anisotropy (0 nM MN551 = 1, free probe = 0) (MN551 17.6386 nM, Cycle 13 (60 min)): 1.033 and 0.9926 and 1.023
Normalised anisotropy (0 nM MN551 = 1, free probe = 0) (MN551 17.6386 nM, Cycle 14 (65 min)): 1.058 and 1.0113 and 1.0096
Fb, fraction bound (MN551 17.6386 nM): 1.066 and 1.015 and 1.047
Anisotropy [3]: 282.4 and 277.6 and 277.2
Fb [3]: 1.065 and 1.007 and 1.031
Anisotropy [4]: 282.3 and 277.4 and 277.1
Fb [4]: 1.042 and 1.027 and 1.02
Anisotropy data 485,520,520 [5]: 277.5 and 272.7 and 272.2
Anisotropy normalised (0 nM MN551 = 1, free probe = 0) [5]: 1.056 and 1.005 and 1.045
Anisotropy normalised (0 nM MN551 = 1, free probe = 0) (MN551 17.6386 nM, Cycle 19 (90 min)): 1.075 and 1.012 and 1.027
Anisotropy normalised (0 nM MN551 = 1, free probe = 0) (MN551 17.6386 nM, Cycle 20 (95 min)): 1.027 and 0.9971 and 1.019
Anisotropy based on Raw Data (485) (MN551 24.4141 nM): 282.9 and 279.8 and 282
Fb, fraction bound (MN551 24.4141 nM): 1.016 and 1.08 and 1.041
Anisotropy (MN551 24.4141 nM, Cycle 11 (50 min)): 280.9 and 281.2 and 279.7
Anisotropy (MN551 24.4141 nM, Cycle 12 (55 min)): 280
Anisotropy data 485,520,520 (MN551 24.4141 nM, Cycle 18 (85 min)): 276.9 and 277.7 and 276.3
Anisotropy based on Raw Data (485) (MN551 24.694 nM): 274.8 and 272.6 and 276.9
Normalised anisotropy (0 nM MN551 = 1, free probe = 0) (MN551 24.694 nM, Cycle 13 (60 min)): 1.02 and 0.977 and 1.0251
Normalised anisotropy (0 nM MN551 = 1, free probe = 0) (MN551 24.694 nM, Cycle 14 (65 min)): 1.023 and 1.014 and 1.022
Fb, fraction bound (MN551 24.694 nM): 1.025 and 1.008 and 1.0546
Anisotropy [6]: 280.6 and 275.8 and 277.4
Fb [6]: 1.048 and 0.9896 and 1.033
Anisotropy [7]: 282.7 and 278.3 and 277.5
Fb [7]: 1.046 and 1.035 and 1.024
Anisotropy data 485,520,520 [8]: 274.3 and 273.5 and 273.4
Anisotropy normalised (0 nM MN551 = 1, free probe = 0) [8]: 1.025 and 1.012 and 1.057
Anisotropy normalised (0 nM MN551 = 1, free probe = 0) (MN551 24.694 nM, Cycle 19 (90 min)): 1.038 and 1.023 and 1.016
Anisotropy normalised (0 nM MN551 = 1, free probe = 0) (MN551 24.694 nM, Cycle 20 (95 min)): 1.035 and 1.007 and 1.013
Anisotropy based on Raw Data (485) (MN551 34.5716 nM): 274.4 and 276.1 and 281.6
Normalised anisotropy (0 nM MN551 = 1, free probe = 0) (MN551 34.5716 nM, Cycle 13 (60 min)): 1.034 and 1.023 and 1.046
Normalised anisotropy (0 nM MN551 = 1, free probe = 0) (MN551 34.5716 nM, Cycle 14 (65 min)): 1.052 and 1.027 and 1.028
Fb, fraction bound (MN551 34.5716 nM): 1.054 and 1.044 and 1.086
Anisotropy [9]: 283.1 and 279.4 and 279.3
Fb [9]: 1.072 and 1.024 and 1.051
Anisotropy [10]: 281.9 and 279 and 279.2
Fb [10]: 1.038 and 1.042 and 1.04
Anisotropy data 485,520,520 [11]: 278.1 and 277 and 275.1
Anisotropy normalised (0 nM MN551 = 1, free probe = 0) [11]: 1.062 and 1.046 and 1.074
Anisotropy normalised (0 nM MN551 = 1, free probe = 0) (MN551 34.5716 nM, Cycle 19 (90 min)): 1.076 and 1.071 and 1.037
Anisotropy normalised (0 nM MN551 = 1, free probe = 0) (MN551 34.5716 nM, Cycle 20 (95 min)): 1.051 and 1.0281 and 1.04
Anisotropy based on Raw Data (485) (MN551 48.4003 nM): 280.1 and 278.6 (2×)
Normalised anisotropy (0 nM MN551 = 1, free probe = 0) (MN551 48.4003 nM, Cycle 13 (60 min)): 1.018 and 0.9871 and 0.9961
Normalised anisotropy (0 nM MN551 = 1, free probe = 0) (MN551 48.4003 nM, Cycle 14 (65 min)): 1.029 and 1 and 1.015
